According to PubChem BioAssay (NCI):
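Five compound concentrations were applied to cells in 96-well plates for 48 hours; endpoints were derived by simple linear interpolation of the resulting dose-response curve. TGI marks complete inhibition of growth.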

Tests used:
Test in all cases: growth of human tumour cells (NCI), 48 h
[1] = tested on: 786-0 renal
[2] = tested on: CCRF-CEM leukemia
[3] = tested on: COLO 205 colon
[4] = tested on: DU-145 prostate
[5] = tested on: HCT-15 colon
[6] = tested on: MCF7 breast
[7] = tested on: NCI-H226 lung
[8] = tested on: NCI-H460 lung
[9] = tested on: NCI/ADR-RES ovarian
[10] = tested on: OVCAR-4 ovarian
[11] = tested on: OVCAR-5 ovarian
[12] = tested on: SF-295 CNS
[13] = tested on: SK-MEL-2 melanoma
[14] = tested on: SK-MEL-28 melanoma
[15] = tested on: SK-OV-3 ovarian
[16] = tested on: SN12C renal
[17] = tested on: SW-620 colon
[18] = tested on: T-47D breast
[19] = tested on: UO-31 renal

Measured: TGI

Cc1cc(=O)[nH]c2c3c(ccc12)OC(C)(C)C=C3
> 62.7 µM: [1]
> 82.9 µM: [15]
> 33.6 µM: [7]
12.2 µM: [3]
> 66.1 µM: [11]
> 49.6 µM: [16]
> 80.4 µM: [12]
> 100 µM: all other assays above

c1ccc2c3nnc(c2c1)SCCSCCCSCCS3
25.8 µM: [10]
97.5 µM: [15]
> 100 µM: all other assays above

CC1(C)C(=O)C2(C#N)CCC1C2 (stereo not drawn)
> 100 µM: all assays above

CCOC(=O)C(Cc1cn(S(=O)(=O)c2ccc(C)cc2)cn1)P(=O)(OCC)OCC (stereo not drawn)
> 100 µM: all assays above

COc1ccc(C2C(Cl)C(=O)N2NC(=O)c2ccc(N)cc2)cc1OC (stereo not drawn)
34.8 µM: [11]
24.7 µM: [6]
38.3 µM: [7]
33 µM: [15]
24.5 µM: [16]
18.4 µM: [12]
4.45 µM: [2]
51.8 µM: [8]
30.3 µM: [3]
11.2 µM: [17]
19 µM: [10]
5.16 µM: [9]
8.59 µM: [1]
17.6 µM: [14]
21.3 µM: [5]
24.9 µM: [18]
26.6 µM: [13]
32.1 µM: [4]
25.7 µM: [19]

COc1nc2c(c(=O)n1C)NC(C(O)C(O)CO)C=N2 (stereo not drawn)
> 10 µM: all assays above

Cc1cc(=O)oc2c(CNC(C(=O)O)C(C)O)c(O)ccc12 (stereo not drawn)
> 100 µM: all assays above
